In patent US20140057895A1, “INDAZOLE- AND PYRROLOPYRIDINE-DERIVATIVE AND PHARMACEUTICAL USE THEREOF” (priority 2011, published 2014):
Structures can show the parent of a compound that is named as a salt. Where two headings read alike, the source gives them in different places.

Assays:
[1] = biological target: T1, human 5-HT4b receptor (Homo sapiens, UniProt Q13639); assay: Test Example 4: Serotonin 4 (5-HT4) receptor agonist activity assay, cAMP HTRF in CHO cells (Table 100); type: cell-based; conditions: mean value; for Emax: CHO, 0.25 h, intrinsic activity, maximal activity of 5-HT defined as 100%, read-out: IA (%); for EC50: concentration showing 50% of IA
T1 construct: expressed in transfected cells; host or cells: CHO cells (G418 selection)
Protocol: The cAMP measurement test used herein was carried out by using CISBIO HTRF (trademark) cAMP Hirange kit according to the manufacturer's instructions attached therewith.
CHO cells expressing human 5-HT4b receptor were incubated in Medium 1 [DMEM/1% NEAA, 1% penicillin/streptomycin (P/S), 0.2 mg/mL GENETICIN (G418), 10% FBS] at 37° C. under 5% CO2 condition. Then, the cells were put into Medium 2 (DMEM/10000 cut FBS, G-418, P/S, NEAA) for 1 to 2 hours, and collected by treating with trypsin containing EDTA. The collected cells were suspended in Assay Buffer 1 [100 mM Hanks/HEPES buffer (pH 7.4)], the suspended cells were mixed with the testing compound on 384-well plates, and the cells were incubated at 31° C. for 15 minutes. To the cells were added cAMP-cryptate solution and cAMP-d2 solution, and they were incubated at room temperature for 1 hour. Then, time-resolved fluorescence was measured by En Vision (excitation wavelength: 330 nm, fluorescence wavelength: 620/665 nm).
An intrinsic activity of the compound [IA (%)] and a concentration showing 50% of IA [EC50 (nM)] were calculated from the obtained results. In particular, the intrinsic activity (IA) was calculated on the basis of the maximal activity of 5-HT (measured from 10^−11 M to 10^−7 M) defined as 100%.
In the following table, the compounds used in the test are shown in numbers which correspond to the Example numbers above where the preparations of the compounds are described.

[2] = biological target: T2, 5-HT4 receptor (Cavia porcellus, UniProt O70528); assay: Test Example 3: Guinea pig 5-HT4 receptor binding assay, [3H]-GR113808, striatum membranes (Table 98)
T2 construct: striatum was isolated which was cryopreserved at −80° C. until use; from tissue; host or cells: guinea pig (Slc-Hartley) striatum membranes
Method in brief: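 Striatal membranes from Slc-Hartley guinea pigs were incubated with 0.1 nM [3H]-GR113808 and test compounds in 50 mM Hepes pH 7.4 at 37° C for 30 min; nonspecific binding was defined with 30 μM serotonin. Bound radioactivity was collected by filtration, and IC50 was derived from inhibition of specific binding.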

[3] = Guinea pig 5-HT4 receptor binding assay, [3H]-GR113808, striatum membranes, mean value of each group, read-out: IC50

T1 sequence (Q13639 whole entry): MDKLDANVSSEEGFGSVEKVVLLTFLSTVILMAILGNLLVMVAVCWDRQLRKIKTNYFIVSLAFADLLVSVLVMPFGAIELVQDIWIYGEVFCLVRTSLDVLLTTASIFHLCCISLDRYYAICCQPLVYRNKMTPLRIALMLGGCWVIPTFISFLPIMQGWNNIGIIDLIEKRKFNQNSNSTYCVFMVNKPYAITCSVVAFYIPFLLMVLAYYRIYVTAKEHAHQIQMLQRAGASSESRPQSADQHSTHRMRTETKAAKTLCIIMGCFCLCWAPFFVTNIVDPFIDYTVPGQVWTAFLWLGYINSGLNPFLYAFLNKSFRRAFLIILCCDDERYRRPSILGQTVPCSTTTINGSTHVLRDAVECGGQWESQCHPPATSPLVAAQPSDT
T2 sequence (O70528 whole entry): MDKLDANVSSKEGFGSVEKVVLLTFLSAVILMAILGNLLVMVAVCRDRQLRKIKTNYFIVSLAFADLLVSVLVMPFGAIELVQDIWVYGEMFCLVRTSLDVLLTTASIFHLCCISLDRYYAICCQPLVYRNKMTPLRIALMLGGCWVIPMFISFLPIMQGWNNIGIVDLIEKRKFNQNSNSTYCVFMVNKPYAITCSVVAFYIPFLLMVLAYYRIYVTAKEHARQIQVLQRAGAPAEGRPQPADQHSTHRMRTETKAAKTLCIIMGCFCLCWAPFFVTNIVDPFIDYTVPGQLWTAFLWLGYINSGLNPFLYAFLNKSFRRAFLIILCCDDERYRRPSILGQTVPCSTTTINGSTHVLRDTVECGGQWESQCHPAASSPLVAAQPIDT

Row | Compound | Emax [1] | EC50 [1] | IC50 [2, 3] | IC50 [2]
1 | CCc1nn(-c2noc(C3CCN(C4CCN(C(=O)COC)CC4)CC3)n2)c2c(F)cccc12 [Example 237, 1-{4-[3-(3-ethyl-7-fluoro-1H-indazol-1-yl)-1,2,4-oxadiazol-5-yl]-1,4′-bipiperidin-1′-yl}-2-methoxyethanone hydrochloride] | 51.9% | 9.7 nM | < 20 nM | –
2 | CCc1nn(-c2noc(C3CCN(CC4CCN(C(=O)COC)CC4)CC3)n2)c2c(F)c(F)ccc12 [Example 477, 1-[4-({4-[3-(3-ethyl-6,7-difluoro-1H-indazol-1-yl)-1,2,4-oxadiazol-5-yl]piperidin-1-yl}methyl)piperidin-1-yl]-2-methoxyethanone trifluoroacetate] | 65.5% | 11.4 nM | < 20 nM | –
3 | CCc1nn(-c2noc(C3CCN(CC4CCOCC4)CC3)n2)c2cc(C)ccc12 [Example 435, 3-ethyl-6-methyl-1-{5-[1-(tetrahydro-2H-pyran-4-ylmethyl)piperidin-4-yl]-1,2,4-oxadiazol-3-yl}-1H-indazole trifluoroacetate] | 1.6% | 11.9 nM | 44.7 nM | –
4 | CC(C)c1nn(-c2noc(C3CCN(C4CCC4)C3)n2)c2c(F)cccc12 (stereo not drawn) [Example 455, 1-[5-(1-cyclobutylpyrrolidin-3-yl)-1,2,4-oxadiazol-3-yl]-7-fluoro-3-(propan-2-yl)-1H-indazole] | 99% | 28.1 nM | < 20 nM | –
5 | CC(=O)N1CCC(N2CCC(O)(c3nc(-n4nc(C(C)C)c5cccc(F)c54)no3)CC2)CC1 [Example 457, 1-(4-{3-[7-fluoro-3-(propan-2-yl)-1H-indazol-1-yl]-1,2,4-oxadiazol-5-yl}-4-hydroxy-1,4′-bipiperidin-1′-yl)ethanone] | 72.2% | 12.7 nM | – | 85.3 nM
6 | CC(=O)N1CCC(N2CCC(c3nc(-n4nc(C(C)C)c5ccc(F)c(F)c54)no3)CC2)CC1 [Example 464, 1-(4-{3-[6,7-difluoro-3-(propan-2-yl)-1H-indazol-1-yl]-1,2,4-oxadiazol-5-yl}-1,4′-bipiperidin-1′-yl}ethanone trifluoroacetate] | 70% | 31.2 nM | < 20 nM | –
7 | CCc1nn(-c2noc(C3CCN(CC4CCOCC4)CC3)n2)c2c(F)c(F)ccc12 [Example 449, 3-ethyl-6,7-difluoro-1-{5-[1-(tetrahydro-2H-pyran-4-ylmethyl)piperidin-4-yl]-1,2,4-oxadiazol-3-yl}-1H-indazole trifluoroacetate] | 76.4% | 31.2 nM | < 20 nM | –
8 | CC(C)c1nn(-c2noc(C3CCN([C@@H]4C[C@H]5CC[C@@H](C4)N5C(=O)CO)CC3)n2)c2c(F)cccc12 [Example 533, 1-[(3-exo)-3-(4-{3-[7-fluoro-3-(propan-2-yl)-1H-indazol-1-yl]-1,2,4-oxadiazol-5-yl}piperidin-1-yl)-8-azabicyclo[3.2.1]oct-8-yl]-2-hydroxyethanone] | 102% | 3.8 nM | – | < 20 nM
9 | COCC(=O)N1CCC(N2CCC(c3nc(-n4nc(C(C)C)c5cccc(F)c54)no3)CC2)CC1 [Example 233, 1-(4-{3-[7-fluoro-3-(propan-2-yl)-1H-indazol-1-yl]-1,2,4-oxadiazol-5-yl}-1,4′-bipiperidin-1′-yl)-2-methoxyethanone hydrochloride] | 93.5% | 2.9 nM | < 20 nM | –
10 | CC(C)c1nn(-c2noc(C3CCN(C(C)C)CC3)n2)c2c(F)c(F)ccc12 [Example 450, 6,7-difluoro-3-(propan-2-yl)-1-{5-[1-(propan-2-yl)piperidin-4-yl]-1,2,4-oxadiazol-3-yl}-1H-indazole trifluoroacetate] | 87.7% | 15.8 nM | < 20 nM | –
11 | CC(C)c1nn(-c2noc(C3CCN(C4CCC4)CC3)n2)c2c(F)c(F)ccc12 [Example 451, 1-[5-(1-cyclobutylpiperidin-4-yl)-1,2,4-oxadiazol-3-yl]-6,7-difluoro-3-(propan-2-yl)-1H-indazole-trifluoroacetate] | 83.1% | 13.8 nM | < 20 nM | –
12 | CC(C)c1nn(-c2noc(CCCN3CCCCC3)n2)c2c(F)cccc12 [Example 394, 7-fluoro-1-{5-[3-(piperidin-1-yl)propyl]-1,2,4-oxadiazol-3-yl}-3-(propan-2-yl)-1H-indazole] | 101% | 3.1 nM | < 20 nM | –
13 | COC(=O)N1CCC(N2CCC(c3nc(-n4nc(C(C)C)c5ccc(F)c(F)c54)no3)CC2)CC1 [Example 463, methyl 4-{3-[6,7-difluoro-3-(propan-2-yl)-1H-indazol-1-yl]-1,2,4-oxadiazol-5-yl}-1,4′-bipiperidine 1′-carboxylate trifluoroacetate] | 64.4% | 8.3 nM | < 20 nM | –
14 | COC(=O)N1CC(CN2CCC(c3nc(-n4nc(C(C)C)c5cccc(F)c54)no3)CC2)C1 [Example 220, methyl 3-[(4{3-[7-fluoro-3-(propan-2-yl)-1H-indazol-1-yl]-1,2,4-oxadiazol-5-yl}piperidin-1-yl)methyl]azetidine-1-carboxylate hydrochloride] | 92.4% | 4.8 nM | < 20 nM | –

The next lines start with results.

Row | Emax [1] | EC50 [1] | IC50 [2, 3] | Compound | IC50 [2]
15 | 72.7% | 3.4 nM | < 20 nM | CCc1nn(-c2noc(C3CCN(CC4CN(C(C)=O)C4)CC3)n2)c2c(F)cccc12 [Example 223, 1-[3-({4-[3-(3-ethyl-7-fluoro-1H-indazol-1-yl)-1,2,4-oxadiazol-5-yl]piperidin-1-yl}methyl)azetidin-1-yl]ethanone hydrochloride] | –
16 | 39.7% | 6.8 nM | < 20 nM | CCc1nn(-c2noc(C3CCN(C[C@@H]4CCN(C(C)=O)C4)CC3)n2)c2c(F)cccc12 [Example 201, 1-[(3S)-3-({4-[3-(3-ethyl-7-fluoro-1H-indazol-1-yl)-1,2,4-oxadiazol-5-yl]piperidin-1-yl}methyl)pyrrolidin-1-yl]ethanone] | –
17 | 79.7% | 3.5 nM | < 20 nM | CCc1nn(-c2noc(C3CCN(CC4CN(C(=O)CO)C4)CC3)n2)c2c(F)cccc12 [compound 250, 1-[3-({4-[3-(3-ethyl-7-fluoro-1H-indazol-1-yl)-1,2,4-oxadiazol-5-yl]piperidin-1-yl}methyl)azetidin-1-yl]-2-hydroxyethanone] | –
18 | 96.9% | 2.8 nM | < 20 nM | CC(=O)N1CC(CN2CCC(c3nc(-n4nc(C(C)C)c5cccc(F)c54)no3)CC2)C1 [Example 219, 1-{3-[(4-{3-[7-fluoro-3-(propan-2-yl)-1H-indazol-1-yl]-1,2,4-oxadiazol-5-yl}piperidin-1-yl)methyl]azetidin-1-yl}ethanone hydrochloride] | –
19 | 63.5% | 3.9 nM | < 20 nM | CCc1nn(-c2noc(C3CCN(C4CCN(C(=O)CO)CC4)CC3)n2)c2c(F)cccc12 [compound 244, hydrochloride] | –
20 | 62.3% | 4.6 nM | < 20 nM | CCc1nn(-c2noc(C3CCN(C[C@H]4CCN(S(C)(=O)=O)C4)CC3)n2)c2c(F)cccc12 [Example 216, 3-ethyl-7-fluoro-1-[5-(1-{[(3R)-1-(methylsulfonyl)pyrrolidin-3-yl]methyl}piperidin-4-yl)-1,2,4-oxadiazol-3-yl]-1H-indazole] | –
21 | 56.6% | 21.1 nM | < 20 nM | CCc1nn(-c2noc(C3CCN(CC4CCN(C(=O)CO)CC4)CC3)n2)c2c(F)cccc12 [compound 246, 1-[4-({4-[3-(3-ethyl-7-fluoro-1H-indazol-1-yl)-1,2,4-oxadiazol-5-yl]piperidin-1-yl}methyl)piperidin-1-yl]-2-hydroxyethanone] | –
22 | 68.6% | 5 nM | < 20 nM | CCc1nn(-c2noc(C3CCN(C[C@H]4CCN(C(=O)COC)C4)CC3)n2)c2c(F)cccc12 [Example 210, 1-[(3R)-3-({4-[3-(3-ethyl-7-fluoro-1H-indazol-1-yl)-1,2,4-oxadiazol-5-yl]piperidin-1-yl}methyl)pyrrolidin-1-yl]-2-methoxyethanone hydrochloride] | –
23 | 79% | 12.7 nM | < 20 nM | CCc1nn(-c2noc(C3CCN(C[C@H]4CCN(C(=O)CO)C4)CC3)n2)c2c(F)cccc12 [Example 247, 1-[(3R)-3-({4-[3-(3-ethyl-7-fluoro-1H-indazol-1-yl)-1,2,4-oxadiazol-5-yl]piperidin-1-yl}methyl)pyrrolidin-1-yl]-2-hydroxyethanone] | –
